Target: DNA damage-binding protein 1/Protein cereblon (Homo sapiens, UniProt Q96SW2)
Procedure: The binding potency was determined using H-TRF assay technology (Perkin Elmer). Compounds were serially diluted in DMSO and 0.2 μL volume was transferred to white 384-well plate.

Chain of DNA damage-binding protein 1/Protein cereblon (Q16531 whole entry): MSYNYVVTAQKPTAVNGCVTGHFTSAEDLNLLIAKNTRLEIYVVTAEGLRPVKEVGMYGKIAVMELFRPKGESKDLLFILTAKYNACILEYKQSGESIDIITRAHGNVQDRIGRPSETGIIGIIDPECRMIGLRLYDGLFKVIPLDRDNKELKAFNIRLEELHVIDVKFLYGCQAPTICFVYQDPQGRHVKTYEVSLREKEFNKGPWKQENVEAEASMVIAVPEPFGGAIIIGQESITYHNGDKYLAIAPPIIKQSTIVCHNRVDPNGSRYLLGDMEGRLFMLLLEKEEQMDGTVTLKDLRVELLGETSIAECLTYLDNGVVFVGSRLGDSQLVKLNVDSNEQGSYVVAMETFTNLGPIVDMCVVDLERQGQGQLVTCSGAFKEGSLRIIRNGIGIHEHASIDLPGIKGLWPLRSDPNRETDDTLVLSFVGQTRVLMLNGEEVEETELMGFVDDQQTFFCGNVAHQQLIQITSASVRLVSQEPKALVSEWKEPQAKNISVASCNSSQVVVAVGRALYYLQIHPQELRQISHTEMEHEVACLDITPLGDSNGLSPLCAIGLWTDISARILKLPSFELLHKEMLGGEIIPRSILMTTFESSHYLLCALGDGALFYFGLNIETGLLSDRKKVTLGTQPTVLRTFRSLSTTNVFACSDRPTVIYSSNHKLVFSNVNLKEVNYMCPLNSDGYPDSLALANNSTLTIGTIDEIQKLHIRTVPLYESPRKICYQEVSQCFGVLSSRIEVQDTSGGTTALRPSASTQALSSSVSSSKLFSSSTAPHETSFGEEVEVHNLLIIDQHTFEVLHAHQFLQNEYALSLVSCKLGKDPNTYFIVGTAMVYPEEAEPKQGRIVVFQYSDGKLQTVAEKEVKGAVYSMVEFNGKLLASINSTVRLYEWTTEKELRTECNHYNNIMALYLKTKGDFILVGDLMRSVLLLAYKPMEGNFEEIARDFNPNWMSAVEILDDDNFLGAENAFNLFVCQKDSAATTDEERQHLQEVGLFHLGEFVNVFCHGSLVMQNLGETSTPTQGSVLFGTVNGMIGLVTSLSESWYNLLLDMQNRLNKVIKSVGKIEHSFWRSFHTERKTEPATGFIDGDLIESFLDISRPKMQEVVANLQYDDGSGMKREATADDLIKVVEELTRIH
Chain of DNA damage-binding protein 1/Protein cereblon (Q96SW2 whole entry): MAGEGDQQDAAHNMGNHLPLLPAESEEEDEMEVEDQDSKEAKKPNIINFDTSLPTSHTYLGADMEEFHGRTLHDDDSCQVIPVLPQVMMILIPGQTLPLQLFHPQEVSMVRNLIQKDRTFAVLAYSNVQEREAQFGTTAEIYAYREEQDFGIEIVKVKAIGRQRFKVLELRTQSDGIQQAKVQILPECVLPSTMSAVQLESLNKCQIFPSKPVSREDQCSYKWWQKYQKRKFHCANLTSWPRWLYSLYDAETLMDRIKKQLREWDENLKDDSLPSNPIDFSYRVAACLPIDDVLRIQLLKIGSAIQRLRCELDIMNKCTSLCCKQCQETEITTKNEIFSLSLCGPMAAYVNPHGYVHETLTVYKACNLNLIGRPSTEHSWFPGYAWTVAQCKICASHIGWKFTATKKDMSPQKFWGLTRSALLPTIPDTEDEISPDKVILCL

C[C@@H]1Cc2c([nH]c3ccccc23)[C@@H](c2cnc(N3CCC(N4CCN(c5ccc(NC6CCC(=O)NC6=O)cc5F)CC4)CC3)nc2)N1CC(C)(C)F (stereo partly specified) [US20260007681, Compound A2]
IC50: 500 to 5000 nM

— BindingDB's records for patent US20260007681 (University Of Michigan, 2026)
